From article PMC12040169 (PLOS Biology, 2025)

Assay: in vitro
Details: human, hela cells, % viability

Going from `N#Cc1nc(COc2cccc(Cl)c2)oc1NCc1ccncc1` [CBK266447] to `O=C(NCCCNC(=O)c1ccc(Cl)cc1Cl)c1ccncc1` [CBK269372], the viability at 28.5 h, 10 µM falls from 95.7% to 89.7%.

Going from `CCCn1ncc(C(=O)N2CCN(CC3CCCN(C)C3)CC2)c1C` (centres unmarked) [CBK307122] to `CN1CCN(CCC(=O)Nc2ccc3c(c2)CCC3)CC1` [CBK264197], the viability at 28.5 h, 10 µM rises from 89.1% to 95.3%.

First: Cc1ccc2c(c1)nc(CNC(=O)NC1CCCc3cn[nH]c31)n2C (centres unmarked) [CBK305554]
Second: Cc1ccc(NCC2CCN(c3cc(=O)n4oc(C)cc4n3)C2)nc1 (centres unmarked) [CBK305827]
The viability at 28.5 h, 10 µM of the first is lower: 77.5% for the first, 90.1% for the second.

Going from `Cc1ccccc1-c1ccc(C(=O)NC2CCCCC2)c(NCc2cccnc2)n1` [CBK076159] to `CCc1nc2ccccc2n1C1CCN(C(=O)Cc2cccnc2)CC1` [CBK306389], the viability at 28.5 h, 10 µM rises from 90.5% to 100%.

Compared with `O=c1[nH]c(=O)c2cc(S(=O)(=O)Nc3ccccc3-c3ccccc3)ccc2[nH]1` [CBK286374], `C=CCn1c(NCc2ccccc2NS(=O)(=O)c2ccc(C)cc2)nc2ccccc21` [CBK266393] is higher in viability at 28.5 h, 10 µM: 102% for the first, 111% for the second.

Compared with `Cc1cccc(CC(=O)N2CCC(c3ncc(C(=O)Nc4ccc(F)cc4)c(C)n3)CC2)c1` [CBK285885], `CC(NC(=O)Cc1ccc(F)cc1)c1nc2cccnc2n1C(C)C` (centres unmarked) [CBK283830] is lower in viability at 28.5 h, 10 µM: 101% for the first, 88.7% for the second.

Compared with `Fc1ccc(Oc2nccnc2N2CCN(CC3CC3)CC2)cc1` [CBK083033T], `CCN1CCN(c2ccc(NC(=O)c3cccnc3)cc2Cl)CC1` [CBK266629C] is higher in viability at 28.5 h, 10 µM: 91.8% for the first, 97.9% for the second.

Compared with `CCCC(=O)Nc1ccc(-c2csc(N3CCCC3=O)n2)cc1` [CBK306088], `CCCCCC(=O)Nc1ccc(S(=O)(=O)Nc2nnc(CC)s2)cc1` [CBK045478] is higher in viability at 28.5 h, 10 µM: 82% for the first, 89% for the second.

Compared with `CC[C@H]1CN(S(=O)(=O)c2c(C)noc2C)CC[C@H]1CC(=O)Nc1nccs1` [CBK288779], `CCOc1cc(NC(=O)N2CCC(Cc3cnn(C)c3)C2)ccc1C` (centres unmarked) [CBK305295] is higher in viability at 28.5 h, 10 µM: 88.3% for the first, 105% for the second.

Going from `Cc1[nH]c2ccccc2c1C(CC(=O)c1ccc(Br)cc1)C(=O)O` (centres unmarked) [CBK269480] to `Cc1nc2ccc(C(=O)c3ccccc3O)cn2c(=O)c1CCC(=O)O` [CBK295618], the viability at 28.5 h, 10 µM rises from 90.9% to 94.5%.

Going from `CN(C)CC/C=C1/c2ccccc2COc2ccc(CC(=O)O)cc21` [CBK200992] to `COc1ccccc1-c1ccc(CN(C)Cc2ccccc2N2CCOCC2)cc1` [CBK286108], the viability at 28.5 h, 10 µM falls from 92.4% to 90.6%.

Compared with `c1ccc2c(c1)N1CCCN=C1N2CCN1CCOCC1` [CBK278300C], `Fc1c(CN2CCOCC2)cccc1CN1CCOCC1` [CBK085967] is lower in viability at 28.5 h, 10 µM: 108% for the first, 97.6% for the second.

First: Cc1ccc(-c2nnc(COC(=O)c3cc(O)nc4ccccc34)o2)cc1 [CBK269741]
Second: Cc1ccc(-c2nnc(COc3ccc(-c4cnc5ccccc5n4)cc3)o2)cc1 [CBK269721]
The viability at 28.5 h, 10 µM of the first is lower: 88.9% for the first, 90.9% for the second.

Compared with `Cc1ccc(S(=O)(=O)NC(C)(C)CSc2nnc(N)s2)cc1` [CBK266350], `Cc1ccc(C2=CCN(S(=O)(=O)c3ccc(F)cc3)CC2)o1` [CBK283571] is lower in viability at 28.5 h, 10 µM: 97.1% for the first, 93% for the second.

Going from `O=C(N[C@H]1CCN2C(=O)c3cc(-c4ccccc4F)ccc3NC(=O)[C@@H]2C1)c1cnccn1` [CBK289558] to `COc1ccc(-c2ocnc2C(=O)NCCc2ccccc2F)cc1` [CBK283941], the viability at 28.5 h, 10 µM falls from 118% to 90%.

Going from `CC(C)(N)CC(=O)N1CCN(c2ncccn2)CC1` [CBK144532] to `O=C(c1cc2ccccc2o1)N1CCN(c2cccc(C(F)(F)F)c2)CC1` [CBK297507], the viability at 28.5 h, 10 µM rises from 91.3% to 96.8%.

Going from `Cc1ccc2cc(CN(Cc3ccco3)C(=O)C3CCCO3)c(O)nc2c1` (centres unmarked) [CBK269300] to `CCN(Cc1nc(-c2ccccc2)no1)C(=O)c1ccoc1C` [CBK270229], the viability at 28.5 h, 10 µM falls from 103% to 89.3%.

First: O=C(O)c1cc(C=Cc2cn(Cc3ccccc3)nc2-c2cccnc2)nc2ccccc12 [CBK296988]
Second: N/C(=N\OC(=O)c1cc(-c2ccccc2)nc2ccccc12)c1cccnc1 [CBK265106]
The viability at 28.5 h, 10 µM of the first is higher: 105% for the first, 101% for the second.

First: COc1ccc(C2(CN3CCC(NC(C)=O)CC3)CC2)cc1 [CBK285357]
Second: CCOc1ccc(S(=O)(=O)N2CCC(C(=O)NCCO)CC2)cc1 [CBK269817]
The viability at 28.5 h, 10 µM of the first is higher: 101% for the first, 88.6% for the second.

Going from `COc1cc(CN2CCN(C(=O)c3ccccc3)CC2)cc(OC)c1O` [CBK263462] to `Cc1ccc(C(CC(=O)N2CCN(Cc3ccccc3)CC2)c2ccccc2)c(O)c1C` (centres unmarked) [CBK262214], the viability at 28.5 h, 10 µM rises from 94.3% to 100%.

Compared with `NS(=O)(=O)c1ccc(CCNC2CC(=O)N(Cc3cccs3)C2=O)cc1` (centres unmarked) [CBK266579], `O=C(c1ccncc1)c1ccc(N2CCN(C3CC(=O)N(Cc4cccs4)C3=O)CC2)cc1` (centres unmarked) [CBK269074] is higher in viability at 28.5 h, 10 µM: 91.1% for the first, 94.6% for the second.

Compared with `S=C(NCCc1ccccc1)NCCN1CCOCC1` [CBK264929], `CN(C)CCN(C)C1CCN(Cc2ccccc2)CC1` [CBK261930] is higher in viability at 28.5 h, 10 µM: 87.4% for the first, 102% for the second.

First: O=C(Cc1ccc([N+](=O)[O-])cc1)N/N=C/c1ccc(O)cc1 [CBK262152]
Second: O=C(CSc1n[nH]c(=O)[nH]c1=O)N/N=C/c1ccc(O)cc1 [CBK263488]
The viability at 28.5 h, 10 µM of the first is lower: 84.5% for the first, 95.4% for the second.

First: O=S(=O)(c1ccc(-c2ccccc2)cc1)n1ccc2cc(N3CCN(Cc4ccccc4)CC3)ccc21 [CBK001388C]
Second: O=C(CN(c1ccc(Cl)cc1)S(=O)(=O)c1ccccc1)Nc1ccc2ccccc2c1 [CBK263776]
The viability at 28.5 h, 10 µM of the first is higher: 115% for the first, 112% for the second.

First: COC(=O)c1c(C)oc(C)c1S(=O)(=O)Nc1ccc(C(C)C)cc1 [CBK057115]
Second: Cc1cc(Cl)c(S(=O)(=O)Nc2cccnc2)cc1OCC(N)=O [CBK266523]
The viability at 28.5 h, 10 µM of the first is lower: 88% for the first, 104% for the second.

Compared with `COc1cccc(-c2nn(CCC#N)cc2C(N)=O)c1` [CBK305835], `COc1cccc(OCCCCCc2c(C)n[nH]c2C)c1` [CBK261805] is higher in viability at 28.5 h, 10 µM: 95% for the first, 104% for the second.

First: CCOC(=O)c1csc(C2CCCN2C(=O)CCc2ccccc2O)n1 (centres unmarked) [CBK305448]
Second: CC(C)CNCC1CC(C(=O)N2CCC(Cc3ccccc3)CC2)=NO1 (centres unmarked) [CBK003718C]
The viability at 28.5 h, 10 µM of the first is higher: 109% for the first, 89.7% for the second.

Compared with `COc1ccc(NCc2cc3sccc3n2C)cc1OC` [CBK283486], `COc1ccc(C(C)C)cc1-c1cnc2[nH]c(=O)n(-c3ccc4[nH]ccc4c3)c2n1` [CBK064714] is higher in viability at 28.5 h, 10 µM: 87% for the first, 90.7% for the second.

Going from `Cn1c(SCC(=O)Nc2ccc(N3CCOCC3)c(Cl)c2)nnc1-c1ccc(N)cc1` [CBK265777] to `Cc1ccccc1CSCC(=O)Nc1ccc(S(=O)(=O)N2CCCCC2)cc1` [CBK264006], the viability at 28.5 h, 10 µM rises from 102% to 103%.

Going from `Cc1cc(NC2CC3CCCC(C2)N3C)nc(N)n1` (centres unmarked) [CBK170333] to `Cc1cc(C2CCCCCN2Cc2c(C)nn(C)c2C)on1` (centres unmarked) [CBK282967], the viability at 28.5 h, 10 µM rises from 88.4% to 99.7%.

First: CC(C)(C)OC(=O)N(CCCN1CCN(c2ccc(F)cc2)CC1)c1ccccc1 [CBK016723]
Second: O=C1c2cccc3cccc(c23)C(=O)N1CCN1CCN(CC(O)COc2ccc3c(c2)OCO3)CC1 (centres unmarked) [CBK074849C]
The viability at 28.5 h, 10 µM of the first is higher: 89.2% for the first, 87.4% for the second.

First: COc1cc(C(=O)N2CCCC3(CC(=O)c4ccc(C)cc4O3)C2)cc(OC)c1C (centres unmarked) [CBK168239]
Second: COc1cccc(OC)c1OCCCN1CCCCC1 [CBK262719]
The viability at 28.5 h, 10 µM of the first is lower: 87.2% for the first, 97.7% for the second.

First: Cc1nc2ccc(NC(=S)N3c4ccccc4CC3C)cc2nc1C (centres unmarked) [CBK263169]
Second: Cc1cc(NC(=O)c2cccc(C(F)(F)F)c2)c2ccccc2n1 [CBK116263]
The viability at 28.5 h, 10 µM of the first is lower: 62.5% for the first, 90% for the second.

First: CN(C)c1ccc(-c2nc(C(F)(F)F)nn2C)cn1 [CBK307202]
Second: FC(F)(F)c1ccnc(OCCOc2ccc(Cl)cc2)n1 [CBK115838]
The viability at 28.5 h, 10 µM of the first is lower: 87.1% for the first, 90.8% for the second.

First: COc1ccccc1-c1coc2cc(OC(=O)c3c(C)oc4ccc(OC(C)=O)cc34)ccc2c1=O [CBK265191]
Second: COc1ccc(C(=O)c2oc3cc(NC(=O)c4cccnc4)ccc3c2C)cc1 [CBK287652]
The viability at 28.5 h, 10 µM of the first is higher: 92% for the first, 85.1% for the second.

First: Cc1nn(CC(=O)NCC2CC2)c(=O)c2cc3sccc3n12 [CBK284025]
Second: COc1ccc(CCNC(=O)CCn2nc(C)c(Cl)c2C)cc1C [CBK281643]
The viability at 28.5 h, 10 µM of the first is higher: 94.5% for the first, 89.5% for the second.

First: CC(CN(C)C(=O)c1nc(=O)[nH][nH]1)Oc1ccc(Cl)c(Cl)c1 (centres unmarked) [CBK306471]
Second: Cc1nc(SCCn2cccn2)c2c(=O)n(C)c(=O)n(CC(C)C)c2n1 [CBK306321]
The viability at 28.5 h, 10 µM of the first is lower: 87.9% for the first, 99.1% for the second.

First: Clc1nc2ccccc2nc1N1CCNCC1 [CBK003880]
Second: Nc1nc(N2CCCCC2)nc2ccccc12 [CBK012270]
The viability at 28.5 h, 10 µM of the first is lower: 96% for the first, 114% for the second.

Compared with `COCCNc1nc(-c2ccccc2CO)cnc1N` [CBK063575], `O=C(NCCOc1ccccc1)c1nn(-c2ncccn2)c2ccccc12` [CBK048494] is lower in viability at 28.5 h, 10 µM: 108% for the first, 81% for the second.

Going from `CC(NC(=O)C1(Cn2ccnc2)CC1)c1nc(-c2ccccn2)no1` (centres unmarked) [CBK307514] to `Cc1nc(CC(=O)NC(Cc2ccsc2)c2nccs2)cs1` (centres unmarked) [CBK282823], the viability at 28.5 h, 10 µM falls from 107% to 87.5%.

First: COc1cccc2sc(NC(=O)c3ccc4ncsc4c3)nc12 [CBK287365]
Second: C[C@H](Nc1ccc(C(F)(F)F)cc1[N+](=O)[O-])C(=O)NCCOc1ccccc1F [CBK297535]
The viability at 28.5 h, 10 µM of the first is lower: 98.5% for the first, 106% for the second.

Compared with `O=C(CCc1ccccc1)NNC(=O)C1CC1c1ccccc1` (centres unmarked) [CBK261292], `N#Cc1ccc(CNC2(Cc3cc(-c4ccc(F)cc4)on3)COC2)cc1` [CBK289653] is lower in viability at 28.5 h, 10 µM: 114% for the first, 87.3% for the second.

Compared with `CN(C)C(=O)[C@H]1CC[C@]2(CC1)CNC(=O)c1ccccc1O2` [CBK284894], `COc1ccc(CNCCN)cc1` [CBK013010] is higher in viability at 28.5 h, 10 µM: 92.7% for the first, 98.2% for the second.

With `S=C(NCC1CCN(C(=S)NC2CCCCC2)CC1)NC1CCCCC1` [CBK004987] the viability at 28.5 h, 10 µM was 87.7%.

Same assay, conditions: human, hela cells, % viability, bulk resorufin, single well

Compared with `CCOC(=O)N1CCC2(CC1)OCc1ccc(C#N)cc1O2` [CBK131679], `O=C(C1CCN(S(=O)(=O)c2cccs2)CC1)N1CCC(C(=O)O)(c2ccccc2)CC1` [CBK297147] is lower in viability at 28.5 h, 10 µM: 97.2% for the first, 88% for the second.
